Where only a bound is given, the exact number is not on record here.

Series [1] addresses T1, EP4 receptor (PTGER4) (Homo sapiens, UniProt P35408).
T1 construct: expressed in transfected cells; host or cells: PathHunter β-Arrestin PTGER4 (EP4) cell line
Put plainly: PathHunter beta-arrestin cell-based prostanoid receptor assay, EP4. Particulars: β-Arrestin. The method, then: (§1) DiscoverX cell-based ligand binding assays were performed in the PathHunter beta-arrestin (EP1, EP2, EP3, EP4, FP, IP, and TP receptors) or cAMP Hunter™ (DP receptor) cell lines.
(§2) Receptor binding studies were performed in either the PathHunter® b-Arrestin (EP1, EP2, EP3, EP4, FP, IP, and TP receptors) or cAMP Hunter™ (DP receptor) cell lines. A 10 mM working stock of GP1681 was created in 1×PBS, pH 7.4. All assays were carried out in duplicate with 10 individual concentrations of GP1681. A three-fold dilution series of GP1681 was established for the initial or pilot experiment with a starting concentration of 4 uM (starting concentration was chosen based on previous Gemmus Pharma preclinical experimental results).
GP1681 was incubated with cells lines at either 37° C. or room temperature, for 90-180 minutes (temperatures and incubation times are all dependent on established optimized procedures for each receptor cell line) after which cell wells were processed and signal production detected. […] Receptor binding activity was analyzed using CBIS data analysis suite (ChemInnovation, CA). The percentage of activity was calculated using the following formula: % Activity=100%×(mean RLU of test sample−mean RLU of vehicle control)/(mean MAX control ligand−mean RLU of vehicle control). Dose curves were performed and EC50 values determined. […]

The target in another series is T2, DP1 receptor (PTGDR) (Homo sapiens, UniProt Q13258).
T2 construct: host or cells: cAMP Hunter (DP receptor) cell line
T2 sequence (Q13258 1-359): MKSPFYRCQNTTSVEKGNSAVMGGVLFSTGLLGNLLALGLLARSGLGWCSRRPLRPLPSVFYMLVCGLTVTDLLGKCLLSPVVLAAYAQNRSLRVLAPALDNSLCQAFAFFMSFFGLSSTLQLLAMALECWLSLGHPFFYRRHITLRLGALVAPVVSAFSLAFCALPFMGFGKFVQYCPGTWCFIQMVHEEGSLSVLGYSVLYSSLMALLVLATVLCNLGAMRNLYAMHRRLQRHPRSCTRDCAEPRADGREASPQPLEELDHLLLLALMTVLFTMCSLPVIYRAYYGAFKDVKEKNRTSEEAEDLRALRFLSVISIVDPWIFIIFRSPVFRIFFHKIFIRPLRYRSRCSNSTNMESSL
Put plainly: cAMP Hunter cell-based prostanoid receptor assay, DP receptor. Particulars: HitHunter cAMP cell line. The protocol:
as §1, §2
(§3) GP1681 was incubated with cells lines at either 37° C. or room temperature, for 90-180 minutes (temperatures and incubation times are all dependent on established optimized procedures for each receptor cell line) after which cell wells were processed and signal production detected. […] Vehicle only controls (PBS, pH 7.4) were also included for each receptor cell line. Receptor binding activity was analyzed using CBIS data analysis suite (ChemInnovation, CA). The percentage of activity was calculated using the following formula: % Activity=100%×(mean RLU of test sample−mean RLU of vehicle control)/(mean MAX control ligand−mean RLU of vehicle control). Dose curves were performed and EC50 values determined.
(§4) The four assays were repeated with a higher starting concentration.
(§5) The second experimental run of the receptor binding assay was performed with these last four cell lines including GP1681 and their respective positive and negative (vehicle, PBS pH 7.4) controls. A 10 mM GP1681 working stock was again created in 1×PBS, pH 7.4. A three-fold serial dilution scheme was again used for GP1681 samples, starting this time at a concentration of 500 μM. The remainder of the second experimental run was performed in the same manner as run 1.

Another series concerns the target T3, EP1 receptor (PTGER1) (Homo sapiens, UniProt P34995).
T3 construct: host or cells: PathHunter beta-arrestin cell line
T3 sequence (P34995 1-402): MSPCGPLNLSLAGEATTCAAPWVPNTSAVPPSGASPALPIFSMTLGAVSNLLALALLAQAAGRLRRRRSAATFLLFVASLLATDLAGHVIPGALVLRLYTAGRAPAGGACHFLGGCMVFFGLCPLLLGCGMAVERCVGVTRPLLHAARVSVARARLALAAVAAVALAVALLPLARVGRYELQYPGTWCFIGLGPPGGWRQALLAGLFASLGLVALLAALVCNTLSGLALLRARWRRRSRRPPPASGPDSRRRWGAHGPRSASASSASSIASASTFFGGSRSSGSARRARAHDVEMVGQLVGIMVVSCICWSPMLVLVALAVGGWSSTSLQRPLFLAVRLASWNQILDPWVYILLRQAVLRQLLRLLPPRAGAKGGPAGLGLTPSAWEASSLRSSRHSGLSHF
Put plainly: PathHunter beta-arrestin cell-based prostanoid receptor assay, EP1. The note with it: β-Arrestin. The protocol: as §1, §2, §3, §4, §5

The target in the next series is T4, FP receptor (PTGFR) (Homo sapiens, UniProt P43088).
T4 construct: host or cells: PathHunter beta-arrestin cell line
T4 sequence (P43088 whole entry): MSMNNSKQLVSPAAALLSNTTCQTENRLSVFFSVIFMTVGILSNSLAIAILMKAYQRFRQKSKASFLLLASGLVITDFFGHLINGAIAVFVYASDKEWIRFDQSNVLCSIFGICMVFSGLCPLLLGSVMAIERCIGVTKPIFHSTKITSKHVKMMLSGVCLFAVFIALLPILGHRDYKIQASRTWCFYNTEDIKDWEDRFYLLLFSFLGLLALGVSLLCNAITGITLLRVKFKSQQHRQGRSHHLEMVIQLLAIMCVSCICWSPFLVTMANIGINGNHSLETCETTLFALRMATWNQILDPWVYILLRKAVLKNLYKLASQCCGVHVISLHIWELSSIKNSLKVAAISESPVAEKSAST
Put plainly: PathHunter beta-arrestin cell-based prostanoid receptor assay, FP. The method, then: as §1, §2
GP1681 was incubated with cells lines at either 37° C. or room temperature, for 90-180 minutes (temperatures and incubation times are all dependent on established optimized procedures for each receptor cell line) after which cell wells were processed and signal production detected. […] Receptor binding activity was analyzed using CBIS data analysis suite (ChemInnovation, CA). The percentage of activity was calculated using the following formula: % Activity=100%×(mean RLU of test sample−mean RLU of vehicle control)/(mean MAX control ligand−mean RLU of vehicle control). Dose curves were performed and EC50 values determined.

The target in series [2] is T1, EP4 receptor (PTGER4). Put plainly: PathHunter β-Arrestin PTGER4 (EP4) agonist assay, optimisation of cell density and temperature. The class given is cell-based. The note with it: for EC50: read-out: RC50 (μM) / EC50, agonist. The protocol: This Example describes antagonist assay experiments performed with known EP4 receptor inhibitors. Agonist controls and antagonist binding studies were performed in the PathHunter® β-Arrestin PTGER4 (EP4) cell lines. The PathHunter® β-Arrestin assay monitors activation by bound ligands of a GPCR in a homogenous, non-imaging assay format using Enzyme Fragment Complementation (EFC) with β-galactosidase (β-Gal) as the functional reporter. A fresh 10 mM working stock of GP1681 was created in the vehicle (1×PBS, pH 7.4). Prior to setting up the GP1681-antagonist assays, the parameters of the GP1681 agonist assay were optimized for most efficient cellular activation and expression of the reporter molecule via GP1681 receptor (PTGER4) binding. Two different cell densities (5K vs 7.5K) and incubation temperatures (room temperature and 37 C) were evaluated in standard agonist format. […] Vehicle only controls (1×PBS, pH 7.4) were also included for each receptor cell line. Receptor binding activity was analyzed using CBIS data analysis suite (ChemInnovation Software, Inc., San Diego, CA, USA).
The percentage of activity was calculated using the following formula: % Activity=100%×(mean RLU of test sample−mean RLU of vehicle control)/(mean MAX control ligand−mean RLU of vehicle control). Dose curves were performed and EC50 values determined. In all rows, the assay was Arrestin, the assay target was PTGER4, and the result type was EC50 for all agonists, and IC50 for all antagonists. NI indicates no inhibition, N is number of replicates, K is cell density, and RT is room temperature.

Series [3] in a line: Effect of food on oral absorption of GP1681.
Setting [4] is: Run 1, GP1681 starting concentration 4 uM, curve for GP1681 not fully sigmoidal.
Setting [5] is: Run 2, GP1681 starting concentration 500 μM.

T1 sequence (P35408 whole entry): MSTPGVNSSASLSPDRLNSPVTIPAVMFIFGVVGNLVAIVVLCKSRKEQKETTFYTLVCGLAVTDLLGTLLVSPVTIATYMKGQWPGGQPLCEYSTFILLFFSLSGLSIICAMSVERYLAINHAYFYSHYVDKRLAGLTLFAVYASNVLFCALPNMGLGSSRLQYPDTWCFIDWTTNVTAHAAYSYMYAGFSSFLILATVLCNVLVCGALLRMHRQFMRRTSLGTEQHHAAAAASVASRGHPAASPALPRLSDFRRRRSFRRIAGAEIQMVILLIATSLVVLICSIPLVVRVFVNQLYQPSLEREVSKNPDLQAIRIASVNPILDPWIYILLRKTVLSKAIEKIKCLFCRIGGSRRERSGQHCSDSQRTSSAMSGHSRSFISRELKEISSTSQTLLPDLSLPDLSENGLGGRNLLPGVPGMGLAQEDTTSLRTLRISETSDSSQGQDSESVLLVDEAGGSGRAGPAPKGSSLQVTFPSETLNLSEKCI

Take `CC#CCC(C)C(O)C=CC1C(O)CC2Oc3c(CCCC(=O)O)cccc3C21` (single isomer, unassigned) [GP1681, esuberaprost]: the EC50 is 1.74 µM on EP4 receptor (PTGER4) [1] (setting [4]); 18.1 µM at EP4 receptor (PTGER4) [1] (setting [5]); 1.35 µM on DP1 receptor (PTGDR) (setting [4]); 1.33 µM on DP1 receptor (PTGDR) (setting [5]); 1.08 µM on EP1 receptor (PTGER1) (setting [4]); 7.81 µM on EP1 receptor (PTGER1) (setting [5]). In addition, the EC50 is above 4 µM at FP receptor (PTGFR) (Run 1, GP1681 starting concentration 4 uM, β-Arrestin); 11.9 µM at EP4 receptor (PTGER4) [2] (5K 37C, N not given); 23.4 µM at EP4 receptor (PTGER4) [2] (N = 1, 5K 37C); 12.7 µM at EP4 receptor (PTGER4) [2] (N = 1, 5K RT); 22 µM on EP4 receptor (PTGER4) [2] (N = 1, 7.5K 37C); 14.8 µM at EP4 receptor (PTGER4) [2] (N = 1, 7.5K RT). The EC50 turned out to be 16.2 µM at EP4 receptor (PTGER4) [2] (N = 2, 5K 37C); 16.1 µM at EP4 receptor (PTGER4) [2] (N = 2, 5K RT); 18 µM at EP4 receptor (PTGER4) [2] (N = 2, 7.5K 37C); 11.1 µM on EP4 receptor (PTGER4) [2] (N = 2, 7.5K RT). At FP receptor (PTGFR), the “binding to FP receptor, in words” value is “does not bind”. Moreover, at EP4 receptor (PTGER4) [2] (from GP1681 binding curves, used in the antagonist assays), the EC80 concentration worked out at 45 µM. In series [3], the “effect of food on oral absorption” value is recorded as “positive effect”.
